The numbers were not newly measured in PMC3433420 (PLoS ONE, 2012), which cites them from elsewhere.

This data set concerns the target SH2 and PTB domains. As to conditions: cited from earlier work. The source says:
Supplement pone.0044471.s022.xlsx, sheet "Most recent PM interactions" | column: Kd || Supplement pone.0044471.s022.xlsx, sheet "All original PM interactions" | column: Kd

pKd: −log10 of the molar value. Read-outs that look alike come from different tables or passages of the source.

For “DNPDpYWNHSLPPd [ErbB4 pY1242, N-terminally rhodamine-labeled 13-mer phosphopeptide]”, the pKd (usually the Kd on a negative log10 scale, so that one unit is a factor of ten) by setting is: (protein ABL2, ref Kaushansky et al. Chem and Biol 2008) 7.47; (protein SHC1-PTB, ref Kaushansky et al. Chem and Biol 2008) 6.29.

On to “EDYEpYMNRQRDGd [ErbB3 pY1262, N-terminally rhodamine-labeled 13-mer phosphopeptide]”, for which the pKd by setting is: (Protein PIK3R3-NC, original PM interactions, ref Jones et al. 2006 / Kaushansky et al. Chem and Biol 2008) 5.70; (Protein PLCG2-NC, original PM interactions, ref Jones et al. 2006 / Kaushansky et al. Chem and Biol 2008) 5.70; (Protein RASA1-NC, original PM interactions, ref Jones et al. 2006 / Kaushansky et al. Chem and Biol 2008) 5.70; (Protein SLA, original PM interactions, ref Jones et al. 2006 / Kaushansky et al. Chem and Biol 2008) 5.70; (Protein SOCS5, original PM interactions, ref Jones et al. 2006 / Kaushansky et al. Chem and Biol 2008) 5.70; (protein ABL2, ref Jones et al. 2006 / Kaushansky et al. Chem and Biol 2008) 5.71. The pKd (protein RASA1-N, ref Jones et al. 2006 / Kaushansky et al. Chem and Biol 2008) was 5.92.

Consider “QHPDpYLQEYSTKd [ErbB4 pY1258, N-terminally rhodamine-labeled 13-mer phosphopeptide]”, for which the pKd is 6.06 (protein ABL2, all original PM interactions, ref Jones et al. 2006 / Kaushansky et al. Chem and Biol 2008); 5.70 (protein PIK3R3-NC, all original PM interactions, ref Jones et al. 2006 / Kaushansky et al. Chem and Biol 2008); 5.70 (protein PLCG1-C, all original PM interactions, ref Jones et al. 2006 / Kaushansky et al. Chem and Biol 2008); 5.70 (protein PLCG1-NC, all original PM interactions, ref Jones et al. 2006 / Kaushansky et al. Chem and Biol 2008); 5.70 (protein RASA1-N, all original PM interactions, ref Jones et al. 2006 / Kaushansky et al. Chem and Biol 2008); 5.70 (protein SHC1-PTB, all original PM interactions, ref Jones et al. 2006 / Kaushansky et al. Chem and Biol 2008). In addition, the pKd (protein SLA, all original PM interactions, ref Jones et al. 2006 / Kaushansky et al. Chem and Biol 2008) is 5.70; the pKd (protein SYK-NC, all original PM interactions, ref Jones et al. 2006 / Kaushansky et al. Chem and Biol 2008) is 5.70; the pKd (protein VAV2, all original PM interactions, ref Jones et al. 2006 / Kaushansky et al. Chem and Biol 2008) is 5.70; the pKd (protein VAV2, ref Jones et al. 2006 / Kaushansky et al. Chem and Biol 2008) is 6.11.

Regarding ALESILHRIpYTHQSDVWd [ErbB1 891], the pKd is, setting by setting: (Protein HSH2D, most recent PM interactions, ref Kaushansky et al. Mol Biosys 2008) 5.95; (Protein TNS4, most recent PM interactions, ref Kaushansky et al. Mol Biosys 2008) 6.52.

Turning to “AEDEpYVNEPLYLd [ErbB4 pY1202, N-terminally rhodamine-labeled 13-mer phosphopeptide]”, the pKd (protein SYK-N, ref Kaushansky et al. Chem and Biol 2008) was 8.22.

As to HQISLDNPDpYQQDFFPKd [ErbB1 1172], the negative logarithm of the Kd (pKd) (Protein ABL2, most recent PM interactions, ref Jones et al. 2006 / Kaushansky et al. Mol Biosys 2008 / Kaushansky et al. Chem and Biol 2008) is 6.31; the pKd (Protein RASA1-N, most recent PM interactions, ref Jones et al. 2006 / Kaushansky et al. Mol Biosys 2008 / Kaushansky et al. Chem and Biol 2008) was 5.94; the pKd (Protein SHC1-PTB, most recent PM interactions, ref Jones et al. 2006 / Kaushansky et al. Mol Biosys 2008 / Kaushansky et al. Chem and Biol 2008) is 7.40; the pKd (Protein SHC2-PTB, most recent PM interactions, ref Jones et al. 2006 / Kaushansky et al. Mol Biosys 2008 / Kaushansky et al. Chem and Biol 2008) was 5.88; the pKd (Protein SYK-NC, most recent PM interactions, ref Jones et al. 2006 / Kaushansky et al. Mol Biosys 2008 / Kaushansky et al. Chem and Biol 2008) was 5.89.
